{"source": "paper PMC10779311", "about": "“Antileishmanial Activity, Toxicity and Mechanism of Action of Complexes of Sodium Usnate with Lanthanide Ions: Eu(III), Sm(III), Gd(III), Nd(III), La(III) and Tb(III)” (International Journal of Molecular Sciences, 2023)", "key": {"[1]": {"tested_on": "L. (L.) amazonensis promastigote forms", "experiment": "In vitro antileishmanial activity on promastigote forms (MTT)", "assay_type": "cell-based, Leishmania (Leishmania) amazonensis", "settings": "72 h, MTT; read-out: L. amazonensis Promastigotes (Pro.) IC50"}, "[2]": {"tested_on": "L. (L.) amazonensis intracellular amastigotes", "experiment": "In vitro antileishmanial activity on intracellular amastigotes in peritoneal macrophages", "assay_type": "cell-based, Leishmania (Leishmania) amazonensis", "description": "Peritoneal macrophages were obtained from BALB/c mice in RPMI 1640 culture medium (Sigma-Aldrich® São Paulo, Brazil). After exclusion of inviable cells with trypan blue staining (Sigma-Aldrich® São Paulo, Brazil), cells were transferred to 24-well plates with 13 mm round glass coverslips (10^6 cells/well) and kept at 37 °C/5% CO2. After adhesion for one hour, cells were infected with promastigote forms of L. (L.) amazonensis in the stationary phase (4 × 10^6 cells/well). After 4 h of incubation, samples (complexes 1–7) were added in six replicates (6.25–50.0 µg·mL^−1). […] Coverslips were removed after 24 h, subjected to a dehydration battery with increasing concentrations of acetone: xylol and stained with Giemsa (Sigma-Aldrich®, São Paulo, Brazil) diluted 1:10 in distilled water. After mounting on slides, 200 cells per coverslip were analyzed by light microscopy and the average number of amastigotes/cells was calculated. IC50 was determined using a non-linear dose–response regression curve as described above. The concentrations of complexes were compared by Two-way ANOVA followed by the Tukey test."}, "NIH/3T3 fibroblasts": {"tested_on": "NIH/3T3 fibroblasts", "experiment": "Cytotoxicity in mammalian cells (sulforhodamine B)", "assay_type": "cell-based", "settings": "48 h, read-out: Fibroblasts NIH/3T3 (Fib.) IC50", "description": "The cytotoxic effect of compounds 1–7 was evaluated on NIH/3T3 fibroblasts obtained from the Rio de Janeiro Cell Bank (Duque de Caxias, Brazil). Fibroblasts were seeded at […] in 96-well plates. After 24 h of fixation, cells were incubated for 48 h with 1–7 at 2.5–250 µg·mL^−1, in three replicates. Cell growth was evaluated using the sulforhodamine B colorimetric method, and the optical with absorbances read on the PT-READER microplate instrument (Spectramax 190, Molecular Devices, Sunnyvale, CA, USA) at 540 nm. […] The growth inhibition percentage-GI (%) of each test sample was calculated in Microsoft Office Excel 2007 software. IC50 was determined graphically in the Microcal Origin Version 6.00 program. The selectivity index (SI) was calculated as the ratio between the cytotoxicity on cells (IC50) and the activity on the parasite forms (IC50)."}, "[3]": {"tested_on": "L. (L.) amazonensis-infected macrophages", "experiment": "NO production by infected cells (Griess reaction)", "assay_type": "cell-based, BALB/c mice", "settings": "24 h after treatment, lowest concentration 6.25 µg·mL^−1", "description": "Nitric oxide (NO) production by infected and treated peritoneal macrophages was estimated in the supernatants from the intracellular amastigotes assay by the Griess reaction. Aliquots of the supernatants ([…]) were incubated with Griess reagent (1:1) for 10 min at room temperature. Absorbance was read on a microplate reader (HumanReader HS, Wiesbaden, Germany) at 550 nm. Conversion of nitrite (NO^−2) to micromolar (µM) was performed by comparing the samples to a standard curve obtained with known concentrations (1–10 µM) of sodium nitrite diluted in RPMI 1640 medium (Sigma-Aldrich® São Paulo, Brazil). The average and standard error of the mean (SEM) were calculated from three replicates. The data were analyzed using ANOVA and subsequently subjected to the Bonferroni test."}, "[4]": {"tested_on": "L. (L.) amazonensis promastigote forms", "experiment": "Flow cytometry for mitochondrial membrane potential (TMRE)", "assay_type": "cell-based, Leishmania (Leishmania) amazonensis"}, "[5]": {"tested_on": "L. (L.) amazonensis promastigote forms", "experiment": "Flow cytometry for apoptosis and membrane permeability (PE Annexin V / 7-AAD)", "assay_type": "cell-based, Leishmania (Leishmania) amazonensis", "settings": "treatment at IC50", "excerpt": "PE Annexin V staining precedes the loss of membrane integrity observed in the final stages of cell death, resulting from either apoptotic or necrotic processes. PE Annexin V is used in conjunction with the vital dye 7-Amino-Actinomycin (7-AAD) to identify early apoptotic cells (7-AAD negative, PE Annexin V positive). Viable cells with intact membranes exclude 7-AAD, but the membranes of dead and damaged cells are permeable to 7-AAD. Cells that are in late apoptosis or already dead are both PE Annexin V and 7-AAD positive. […] Heat-killed parasites (60 °C bath/10 min) were used as positive control, and untreated parasites were used as negative control. Promastigotes were stained with 5 µL of PE Annexin V and 5 µL 7-AAD (PE Annexin V Apoptosis Detection Kit I, BD Biosciences^TM, Franklin Lakes, NJ, USA) and immediately subjected to flow cytometric analysis (BD FACSCanto^TM II). Then, 10,000 events were captured in the region previously determined to correspond to the parasites. Fluorescence was quantified and histograms were generated."}, "[6]": {"tested_on": "promastigotes of Leishmania major", "set-up": "method as in ref 18 Derici et al.", "settings": "ref 18 Derici et al.; cited from earlier work"}, "[7]": {"tested_on": "promastigotes of L. (L.) infantum", "set-up": "method as in ref 18 Derici et al.", "settings": "ref 18 Derici et al.; cited from earlier work"}, "[8]": {"tested_on": "promastigotes of L. tropica", "set-up": "method as in ref 18 Derici et al.", "settings": "ref 18 Derici et al.; cited from earlier work"}, "[9]": {"tested_on": "L. (L.) infantum promastigotes", "set-up": "method as in ref 16 Luz et al.", "settings": "ref 16 Luz et al.; cited from earlier work"}, "[10]": {"tested_on": "Trypanosoma cruzi epimastigotes", "set-up": "method as in ref 45 Carvalho et al.", "settings": "30–50 μg·mL^−1; ref 45 Carvalho et al.; cited from earlier work"}, "[11]": {"tested_on": "L. (L.) infantum promastigotes", "set-up": "method as in ref 16 Luz et al.", "settings": "25 μg·mL^−1; ref 16 Luz et al.; cited from earlier work"}}, "data": [{"smiles": "CC(=O)C1=C([O-])C=C2Oc3c(C(C)=O)c(O)c(C)c(O)c3C2(C)C1=O.CC(=O)C1=C([O-])C=C2Oc3c(C(C)=O)c(O)c(C)c(O)c3C2(C)C1=O.CC(=O)C1=C([O-])C=C2Oc3c(C(C)=O)c(O)c(C)c(O)c3C2(C)C1=O.O.O.O.[Eu+3]", "note": "(centres unmarked) [EuL3·3H2O 4]", "values": [{"measurement": "IC50", "setting": "[1]", "result": 200, "unit": "nM"}, {"measurement": "IC50", "setting": "[2]; BALB/c peritoneal macrophages, 24 h, Giemsa count, read-out: L. amazonensis Intracellular Amastigotes (Ama.) IC50", "result": 2980, "unit": "nM"}, {"measurement": "IC50 on intracellular amastigotes", "setting": "[2]; converted from µM", "result": 3.687, "unit": "µg/mL"}, {"measurement": "IC50", "setting": "NIH/3T3 fibroblasts", "result": 20.1, "unit": "µM"}, {"measurement": "NO release from infected macrophages", "setting": "[3]", "result": "strongest effect"}, {"measurement": "NO release from infected macrophages", "setting": "[3]; listed as EuL3·3H2O", "result": "triggered NO release"}, {"measurement": "TMRE-labeled promastigotes", "setting": "[4]; 48 h after treatment at the calculated IC50", "result": 79.9, "unit": "%"}, {"measurement": "TMRE-labeled promastigotes", "setting": "[4]; 72 h after treatment at the calculated IC50", "result": 80.6, "unit": "%"}, {"measurement": "7-AAD-stained parasites", "setting": "[5]; 24 h", "result": 0.5, "unit": "%"}, {"measurement": "An. (PE Annexin V-stained parasites)", "setting": "[5]; 24 h", "result": 0.6, "unit": "%"}, {"measurement": "An./7-AAD (double stained parasites)", "setting": "[5]; 24 h", "result": 0.7, "unit": "%"}, {"measurement": "Unst. (unstained parasites)", "setting": "[5]; 24 h", "result": 98.2, "unit": "%"}, {"measurement": "7-AAD-stained parasites", "setting": "[5]; 48 h", "result": 1.0, "unit": "%"}, {"measurement": "An. (PE Annexin V-stained parasites)", "setting": "[5]; 48 h", "result": 1.3, "unit": "%"}, {"measurement": "An./7-AAD (double stained parasites)", "setting": "[5]; 48 h", "result": 2.3, "unit": "%"}, {"measurement": "Unst. (unstained parasites)", "setting": "[5]; 48 h", "result": 95.4, "unit": "%"}, {"measurement": "7-AAD-stained parasites", "setting": "[5]; 72 h", "result": 6.0, "unit": "%"}, {"measurement": "An. (PE Annexin V-stained parasites)", "setting": "[5]; 72 h", "result": 1.9, "unit": "%"}, {"measurement": "An./7-AAD (double stained parasites)", "setting": "[5]; 72 h", "result": 8.1, "unit": "%"}, {"measurement": "Unst. (unstained parasites)", "setting": "[5]; 72 h", "result": 84.0, "unit": "%"}]}, {"smiles": "CC(=O)c1c(O)c(C)c(O)c2c1OC1=CC(=O)C(C(C)=O)C(=O)C12C", "note": "(centres unmarked) [usnic acid, 2,6-diacetyl-7,9-dihydroxy-8,9-dimethyl-1,3(2H,9bH)-dibenzofurandione]", "values": [{"measurement": "IC50/48 h on promastigotes", "setting": "[6]", "result": 10.76, "unit": "µg/mL"}, {"measurement": "IC50/48 h on promastigotes", "setting": "[7]", "result": 13.34, "unit": "µg/mL"}, {"measurement": "IC50/48 h on promastigotes", "setting": "[8]", "result": 21.06, "unit": "µg/mL"}, {"measurement": "IC50/72 h on promastigotes", "setting": "[9]", "result": 18.30, "unit": "µg/mL"}, {"measurement": "damage to the mitochondria", "setting": "[10]", "result": "marked swelling and branching"}, {"measurement": "changes in the mitochondrial morphology", "setting": "[11]", "result": "marked swelling"}]}]}
